Data as given in patent US9693556B2, “Herbicidal pyridazinone derivatives” (SYNGENTA LIMITED, priority 2011, dated 2017).

Experiments:
Assay type in all cases: in vivo
[1] = tested on: Ipomoea hederacea (IPOHE); experiment: Pre-emergence herbicidal glasshouse test on Ipomoea hederacea; settings: for PRE Application IPOHE herbicidal damage (five point scale): pre-emergence, 1000 g/h, evaluated after 13 days
Summary of the method: (§1)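 Plants sprayed 1 day (pre-emergence) or 8 days (post-emergence) after sowing with compound at 1000 g/h in acetone/water 50:50 with 0.5% Tween 20; glasshouse 24/16° C, 14 h light, 65% humidity. Damage assessed after 13 days, scored 1–5 (5 = 80-100%, 1 = 0-19%).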

Setaria faberi (SETFA) [2] = experiment: Post-emergence herbicidal glasshouse test on Setaria faberi; settings: for POST Application SETFA herbicidal damage (five point scale): post-emergence, 1000 g/h, evaluated after 13 days
Summary of the method: as §1

[3] = tested on: Alopecurus myosuroides (ALOMY); experiment: Pre-emergence herbicidal glasshouse test on Alopecurus myosuroides; settings: for PRE Application ALOMY herbicidal damage (five point scale): pre-emergence, 1000 g/h, evaluated after 13 days
Summary of the method: as §1

[4] = tested on: Echinochloa crus-galli (ECHCG); experiment: Post-emergence herbicidal glasshouse test on Echinochloa crus-galli; settings: for POST Application ECHCG herbicidal damage (five point scale): post-emergence, 1000 g/h, evaluated after 13 days
Summary of the method: as §1

[5] = tested on: Ipomoea hederacea (IPOHE); experiment: Post-emergence herbicidal glasshouse test on Ipomoea hederacea; settings: for POST Application IPOHE herbicidal damage (five point scale): post-emergence, 1000 g/h, evaluated after 13 days
Summary of the method: as §1

Setaria faberi (SETFA) [6] = experiment: Pre-emergence herbicidal glasshouse test on Setaria faberi; settings: for PRE Application SETFA herbicidal damage (five point scale): pre-emergence, 1000 g/h, evaluated after 13 days
Summary of the method: as §1

[7] = tested on: Echinochloa crus-galli (ECHCG); experiment: Pre-emergence herbicidal glasshouse test on Echinochloa crus-galli; settings: for PRE Application ECHCG herbicidal damage (five point scale): pre-emergence, 1000 g/h, evaluated after 13 days
Summary of the method: as §1

Solanum nigrum (SOLNI) [8] = experiment: Post-emergence herbicidal glasshouse test on Solanum nigrum; settings: for POST Application SOLNI herbicidal damage (five point scale): post-emergence, 1000 g/h, evaluated after 13 days
Summary of the method: as §1

[9] = tested on: Amaranthus retoflexus (AMARE); experiment: Pre-emergence herbicidal glasshouse test on Amaranthus retoflexus; settings: for PRE Application AMARE herbicidal damage (five point scale): pre-emergence, 1000 g/h, evaluated after 13 days
Summary of the method: as §1

[10] = tested on: Alopecurus myosuroides (ALOMY); experiment: Post-emergence herbicidal glasshouse test on Alopecurus myosuroides; settings: for POST Application ALOMY herbicidal damage (five point scale): post-emergence, 1000 g/h, evaluated after 13 days
Summary of the method: as §1

[11] = tested on: Amaranthus retoflexus (AMARE); experiment: Post-emergence herbicidal glasshouse test on Amaranthus retoflexus; settings: for POST Application AMARE herbicidal damage (five point scale): post-emergence, 1000 g/h, evaluated after 13 days
Summary of the method: as §1

Solanum nigrum (SOLNI) [12] = experiment: Pre-emergence herbicidal glasshouse test on Solanum nigrum; settings: for PRE Application SOLNI herbicidal damage (five point scale): pre-emergence, 1000 g/h, evaluated after 13 days
Summary of the method: as §1

Row | Structure (SMILES) | PRE Application IPOHE herbicidal damage (five point scale) [1] | POST Application SETFA herbicidal damage (five point scale) (Setaria faberi (SETFA) [2]) | PRE Application ALOMY herbicidal damage (five point scale) [3] | POST Application ECHCG herbicidal damage (five point scale) [4] | POST Application IPOHE herbicidal damage (five point scale) [5] | PRE Application SETFA herbicidal damage (five point scale) (Setaria faberi (SETFA) [6]) | PRE Application ECHCG herbicidal damage (five point scale) [7] | POST Application SOLNI herbicidal damage (five point scale) (Solanum nigrum (SOLNI) [8]) | PRE Application AMARE herbicidal damage (five point scale) [9] | POST Application ALOMY herbicidal damage (five point scale) [10] | POST Application AMARE herbicidal damage (five point scale) [11] | PRE Application SOLNI herbicidal damage (five point scale) (Solanum nigrum (SOLNI) [12]) | further results
1 | Cn1ncc(-c2ccccc2S(C)(=O)=O)c(O)c1=O [Compound 1.046] | 1 (1=0-19% damage) | 5 (5=80-100% damage) | 5 (5=80-100% damage) | 5 (5=80-100% damage) | 5 (5=80-100% damage) | 3 (3=40-59% damage) | 5 (5=80-100% damage) | 5 (5=80-100% damage) | 5 (5=80-100% damage) | 5 (5=80-100% damage) | 5 (5=80-100% damage) | 5 (5=80-100% damage) | –
2 | Cn1ncc(-c2cccn(-c3cccc(Cl)c3)c2=O)c(O)c1=O [Compound 1.143] | 1 (1=0-19% damage) | 1 (1=0-19% damage) | 2 (2=20-39% damage) | 2 (2=20-39% damage) | 1 (1=0-19% damage) | 1 (1=0-19% damage) | 1 (1=0-19% damage) | 4 (4=60-79% damage) | 3 (3=40-59% damage) | 2 (2=20-39% damage) | 1 (1=0-19% damage) | 1 (1=0-19% damage) | –
3 | Cn1ncc(-c2ccc(SCc3ccccc3)cc2S(C)(=O)=O)c(O)c1=O [Compound 2.035] | 3 (3=40-59% damage) | 5 (5=80-100% damage) | 3 (3=40-59% damage) | 5 (5=80-100% damage) | 5 (5=80-100% damage) | 2 (2=20-39% damage) | 3 (3=40-59% damage) | 5 (5=80-100% damage) | 5 (5=80-100% damage) | 4 (4=60-79% damage) | 5 (5=80-100% damage) | 5 (5=80-100% damage) | –
4 | Cc1ccc(Cl)cc1-n1c(-c2cccc(F)c2)ncc(-c2cnn(C)c(=O)c2O)c1=O [Compound 10.004] | – | – | – | – | – | – | – | – | – | – | – | – | PRE Application IPOHE ([1]; pre-emergence application, Ipomoea hederacea, damage score 1-5): 1 (1=0-19% damage); POST Application SETFA (Setaria faberi (SETFA) [2]; post-emergence application, Setaria faberi, damage score 1-5): 3 (3=40-59% damage); PRE Application ALOMY ([3]; pre-emergence application, Alopecurus myosuroides, damage score 1-5): 1 (1=0-19% damage); POST Application ECHCG ([4]; post-emergence application, Echinochloa crus-galli, damage score 1-5): 4 (4=60-79% damage); POST Application IPOHE ([5]; post-emergence application, Ipomoea hederacea, damage score 1-5): 4 (4=60-79% damage); PRE Application SETFA (Setaria faberi (SETFA) [6]; pre-emergence application, Setaria faberi, damage score 1-5): 1 (1=0-19% damage); PRE Application ECHCG ([7]; pre-emergence application, Echinochloa crus-galli, damage score 1-5): 1 (1=0-19% damage); POST Application SOLNI (Solanum nigrum (SOLNI) [8]; post-emergence application, Solanum nigrum, damage score 1-5): 5 (5=80-100% damage); PRE Application AMARE ([9]; pre-emergence application, Amaranthus retoflexus, damage score 1-5): 2 (2=20-39% damage); POST Application ALOMY ([10]; post-emergence application, Alopecurus myosuroides, damage score 1-5): 1 (1=0-19% damage); POST Application AMARE ([11]; post-emergence application, Amaranthus retoflexus, damage score 1-5): 5 (5=80-100% damage); PRE Application SOLNI (Solanum nigrum (SOLNI) [12]; pre-emergence application, Solanum nigrum, damage score 1-5): 1 (1=0-19% damage)
5 | C=C(C)Cn1cccc(-c2cnn(C)c(=O)c2O)c1=O [Compound 9.007] | 1 (1=0-19% damage) | 2 (2=20-39% damage) | 1 (1=0-19% damage) | 1 (1=0-19% damage) | 2 (2=20-39% damage) | 1 (1=0-19% damage) | 1 (1=0-19% damage) | 4 (4=60-79% damage) | 1 (1=0-19% damage) | 1 (1=0-19% damage) | 3 (3=40-59% damage) | 1 (1=0-19% damage) | –
6 | COc1nn(C)c(=O)c(O)c1-c1ccc(C(F)(F)F)cc1S(C)(=O)=O [Compound 2.041] | 5 (5=80-100% damage) | 5 (5=80-100% damage) | 5 (5=80-100% damage) | 5 (5=80-100% damage) | 5 (5=80-100% damage) | 5 (5=80-100% damage) | 5 (5=80-100% damage) | 5 (5=80-100% damage) | 5 (5=80-100% damage) | 5 (5=80-100% damage) | 5 (5=80-100% damage) | 5 (5=80-100% damage) | –
7 | Cn1ncc(-c2ccccc2C#N)c(O)c1=O [Compound 1.022] | 1 (1=0-19% damage) | 1 (1=0-19% damage) | 1 (1=0-19% damage) | 1 (1=0-19% damage) | 1 (1=0-19% damage) | 1 (1=0-19% damage) | 1 (1=0-19% damage) | 3 (3=40-59% damage) | 1 (1=0-19% damage) | 1 (1=0-19% damage) | 2 (2=20-39% damage) | 1 (1=0-19% damage) | –
